From US20220267260A1, “COMPOUNDS CONTAINING A SULFONIC GROUP AS KAT INHIBITORS” (Epizyme, Inc., priority 2016, published 2022) come the findings set out here.

The target of one assay is T1, KAT6A (Homo sapiens, UniProt Q92794).
T1 construct: His-TEV tag (N, cleaved yes); made in house
As to the kind of experiment: KAT6A enzyme inhibition assay (SAMDI mass spectrometry). The assay is classed as biochemical. The note with it: His-TEV-KAT6A 501-784 enzyme construct.

A further assay concerns the target T2, KAT5 (Homo sapiens, UniProt Q92993).
T2 construct: His-TEV tag (N, cleaved yes); made in house
The assay is described as follows: KAT5 enzyme inhibition assay (SAMDI mass spectrometry). The conditions noted are these: His-TEV-FL KAT5-Flag enzyme construct. The assay is classed as biochemical.

A value given as a limit tells only on which side of the number the result lay.

T2 sequence (Q92993 with tags, fused parts or gaps): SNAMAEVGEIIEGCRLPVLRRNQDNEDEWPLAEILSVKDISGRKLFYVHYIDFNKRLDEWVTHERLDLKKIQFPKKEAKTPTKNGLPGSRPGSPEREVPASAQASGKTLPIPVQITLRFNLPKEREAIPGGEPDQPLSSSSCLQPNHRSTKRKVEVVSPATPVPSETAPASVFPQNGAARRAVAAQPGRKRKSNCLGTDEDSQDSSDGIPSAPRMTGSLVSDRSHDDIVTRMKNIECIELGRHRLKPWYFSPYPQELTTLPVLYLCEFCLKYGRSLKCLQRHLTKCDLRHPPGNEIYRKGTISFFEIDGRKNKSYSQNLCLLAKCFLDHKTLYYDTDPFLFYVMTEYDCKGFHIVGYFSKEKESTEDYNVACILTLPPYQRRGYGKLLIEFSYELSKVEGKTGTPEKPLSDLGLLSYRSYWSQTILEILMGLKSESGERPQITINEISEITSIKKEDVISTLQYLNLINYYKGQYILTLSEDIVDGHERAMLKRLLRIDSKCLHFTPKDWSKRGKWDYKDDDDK
T1 sequence (Q92794 with tags, fused parts or gaps): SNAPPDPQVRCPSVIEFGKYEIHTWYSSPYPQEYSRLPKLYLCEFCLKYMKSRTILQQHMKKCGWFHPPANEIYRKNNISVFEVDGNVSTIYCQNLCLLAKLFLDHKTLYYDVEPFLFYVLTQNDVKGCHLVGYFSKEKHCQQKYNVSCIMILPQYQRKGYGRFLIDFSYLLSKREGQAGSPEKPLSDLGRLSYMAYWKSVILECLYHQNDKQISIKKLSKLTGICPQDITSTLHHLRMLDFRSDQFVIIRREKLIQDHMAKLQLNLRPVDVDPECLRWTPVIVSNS

As to `CCc1cccc(-c2cc(C)c(F)c(C(=O)NNS(=O)(=O)CC3CCCCC3)c2)c1` [Compound I-373], the concentration for half-maximal inhibition (IC50) against KAT6A and against KAT5 was 50 to 100 µM in each case.

Take `O=C(NNS(=O)(=O)c1cccc(Cl)c1)c1ccccc1F` [Compound I-127]: the half-inhibitory concentration (IC50) against KAT6A is 10 to 50 µM; against KAT5, more than 100 µM.

On to `Cc1cc(-c2ccccc2)cc(C(=O)NNS(=O)(=O)CC2CCOCC2)c1F` [Compound I-267], for which the IC50 against KAT6A and on KAT5 was not above 10 µM in each case.

With `COc1cc(Cl)c(F)c(C(=O)NNS(=O)(=O)CC2CCOCC2)c1` [Compound I-431], the IC50 against KAT6A lay within 50 to 100 µM; against KAT5, 10 to 50 µM.

Turning to `Cc1cc(-c2cccc(F)c2)cc(C(=O)NNS(=O)(=O)CC2CCCN(C(=O)OC(C)(C)C)C2)c1F` (stereo not drawn) [Compound I-285], the IC50 against KAT6A and on KAT5 was not above 10 µM in each case.

As to `Cc1cc(-c2cccc(F)c2)cc(C(=O)NNS(=O)(=O)CC2CNCCO2)c1F` (stereo not drawn) [Compound I-428], the IC50 at KAT6A is not above 10 µM; at KAT5 it was 10 to 50 µM.

For the molecule `Cc1cc(-c2cccc(Cl)c2F)cc(C(=O)NNS(=O)(=O)C2CCCCC2)c1F` [Compound I-376], the IC50 against KAT6A and against KAT5 was 10 to 50 µM throughout.

Regarding `O=C(NNS(=O)(=O)CC1CCCCC1)c1cc(-c2cn3ccccc3n2)cc(Cl)c1F` [Compound I-510], the IC50 is more than 100 µM against KAT6A and not above 10 µM against KAT5.

`COCCN1CC(S(=O)(=O)NNC(=O)c2cc(-c3ccccc3)cc(C)c2F)C1` [Compound I-43]: the IC50 on KAT6A fell in the range of 10 to 50 µM; against KAT5, 50 to 100 µM.

Take `O=C(NNS(=O)(=O)c1ccccc1)c1cccc2ccccc12` [Compound I-180]: the IC50 against KAT6A and against KAT5 was more than 100 µM each time.

Regarding `O=C(NNC(=O)c1ccccc1F)c1ccccc1` [Compound I-138], the IC50 against KAT6A and on KAT5 was more than 100 µM each time.

On to `O=C(NNS(=O)(=O)C1CCCCC1)c1cc(-c2ccccc2)cc2[nH]cnc12` [Compound I-375], for which the IC50 against KAT6A and at KAT5 was 50 to 100 µM each time.

For `Cc1cc(-c2cccc(C(=O)OCc3ccccc3)c2)cc(C(=O)NNS(=O)(=O)c2ccccc2)c1F` [Compound I-449], the IC50 at KAT6A and against KAT5 was 50 to 100 µM in each case.

Consider `CCC(=O)N1CCC(S(=O)(=O)NNC(=O)c2cc(-c3ccccc3)cc(C)c2F)CC1` [Compound I-107], for which the IC50 at KAT6A and on KAT5 was 10 to 50 µM each time.

Take `Cc1c(F)cc(-c2ccccc2)cc1C(=O)NNS(=O)(=O)c1ccccc1` [Compound I-205]: the IC50 against KAT6A was 50 to 100 µM; against KAT5, more than 100 µM.

For `O=C(NNS(=O)(=O)CC1CCOCC1)c1cc(CO)cc(Cl)c1F` [Compound I-466], the IC50 at KAT6A and against KAT5 was 10 to 50 µM each time.

As to `Cc1cc(-c2ccccc2)cc(C(=O)NNS(=O)(=O)Cc2ccc(F)cc2)c1F` [Compound I-84], the concentration for half-maximal inhibition (IC50) at KAT6A and against KAT5 was not above 10 µM throughout.

Consider `Cc1cc(C)c(F)c(C(=O)NNS(=O)(=O)C2CCCCC2)c1` [Compound I-347], for which the IC50 was more than 100 µM against KAT6A and 10 to 50 µM against KAT5.

For `COCCN1CCC(S(=O)(=O)NNC(=O)c2cc(-c3ccccc3)cc(C)c2F)CC1` [Compound I-93], the IC50 against KAT6A and against KAT5 was 10 to 50 µM in each case.

Consider `O=C(NNS(=O)(=O)C1CCN(C(=O)C2CCC2)CC1)c1cc(Cl)cc(Cl)c1F` [Compound I-436], for which the half-inhibitory concentration (IC50) on KAT6A was more than 100 µM; against KAT5 it was 50 to 100 µM.

For `Cc1cc(-c2ccccc2)cc(C(=O)NNS(=O)(=O)Cc2ccccc2F)c1F` [Compound I-82], the IC50 at KAT6A and on KAT5 was not above 10 µM each time.

With `Cc1c(-c2ccccc2)ccc(F)c1C(=O)NNS(=O)(=O)C(C)C` [Compound I-231], the concentration for half-maximal inhibition (IC50) at KAT6A and on KAT5 was more than 100 µM throughout.

Take `O=C(NNS(=O)(=O)CC1CCCCC1)c1cc(-c2c[nH]cn2)ccc1F` [Compound I-495]: the IC50 against KAT6A and at KAT5 was 10 to 50 µM throughout.

For the molecule `CC(=O)N1CCOC(CS(=O)(=O)NNC(=O)c2cc(-c3cccc(F)c3)cc(C)c2F)C1` (stereo not drawn) [Compound I-429], the IC50 against KAT6A and on KAT5 was not above 10 µM throughout.

`Cc1cc(-c2cccc(F)c2)cc(C(=O)NNS(=O)(=O)CC2CCCN(C(=O)CCN(C)C)C2)c1F` (stereo not drawn) [Compound I-329]: the IC50 against KAT6A and on KAT5 was 10 to 50 µM each time.

`O=C(NNS(=O)(=O)c1cccc(F)c1)c1cc(-c2ccccc2)ccc1F` [Compound I-154]: the IC50 was not above 10 µM on KAT6A and 10 to 50 µM at KAT5.

As for `Cc1cc(-c2ccccc2)cc(C(=O)NNS(=O)(=O)c2ccccc2Cl)c1F` [Compound I-263], the IC50 on KAT6A and on KAT5 was not above 10 µM each time.

As for `O=C(NNS(=O)(=O)C1CCOCC1)c1cc(Cn2ccnc2)cc(Cl)c1F` [Compound I-440], the IC50 against KAT6A and against KAT5 was more than 100 µM in each case.

Take `Cc1cc(-c2ccccc2)cc(C(=O)N[C@@H](C#N)C2CCCCC2)c1F` [Compound I-257]: the IC50 at KAT6A and against KAT5 was more than 100 µM each time.

As for `Cc1cc(-c2ccccc2)cc(C(=O)NNS(=O)(=O)Cc2ccccc2Cl)c1F` [Compound I-8], the IC50 against KAT6A and on KAT5 was not above 10 µM each time.

As for `CCNC(=O)c1cc(Cl)c(F)c(C(=O)NNS(=O)(=O)C2CCOCC2)c1` [Compound I-492], the IC50 on KAT6A and against KAT5 was more than 100 µM throughout.

In the case of `Cn1nc(NNS(=O)(=O)c2ccccc2)c2cccc(-c3ccccc3)c21` [Compound I-49], the IC50 against KAT6A and against KAT5 was more than 100 µM throughout.

Turning to `Cc1cccc(-c2cc(Cl)c(F)c(C(=O)NNS(=O)(=O)CC3CCCNC3)c2)c1` (stereo not drawn) [Compound I-514], the IC50 against KAT6A and on KAT5 was more than 100 µM each time.

Turning to `Cc1cc(-c2ccccc2)cc(C(=O)NNS(=O)(=O)Cc2ccccc2)c1F` [Compound I-9], the IC50 at KAT6A and on KAT5 was not above 10 µM each time.

With `Cc1cc(-c2ccccc2)cc(C(=O)NNS(=O)(=O)C2CCN(C(=O)c3ccccc3)C2)c1F` (stereo not drawn) [Compound I-32], the results for the concentration for half-maximal inhibition (IC50) at KAT6A and on KAT5 were not above 10 µM and 10 to 50 µM, respectively.

Regarding `COCCN(C)C(=O)c1cc(Cl)c(F)c(C(=O)NNS(=O)(=O)C2CCOCC2)c1` [Compound I-471], the IC50 on KAT6A and at KAT5 was more than 100 µM each time.

On to `O=C(NNS(=O)(=O)CC1CCOCC1)c1cc(-c2cccc(F)c2)cc(Cl)c1F` [Compound I-397], for which the IC50 at KAT6A and on KAT5 was not above 10 µM in each case.

Regarding `Cn1cc(-c2ccc(F)c(Cl)c2)nc1C(=O)NNS(=O)(=O)CC1CCOCC1` [Compound I-478], the IC50 on KAT6A and against KAT5 was more than 100 µM in each case.

On to `Cc1cc(-c2ccccc2)cc(C(=O)NNS(=O)(=O)Cc2cccc(Cl)c2)c1F` [Compound I-5], for which the IC50 at KAT6A and on KAT5 was not above 10 µM each time.

Turning to `COCC(=O)N1CC(CS(=O)(=O)NNC(=O)c2cc(-c3ccccc3)cc(C)c2F)C1` [Compound I-310], the IC50 on KAT6A was not above 10 µM; on KAT5, 10 to 50 µM.

Regarding `COc1cc(C)c(F)c(C(=O)NNS(=O)(=O)C2CCCCC2)c1` [Compound I-391], the IC50 on KAT6A is more than 100 µM; against KAT5 it was not above 10 µM.

Regarding `Cc1cc(-c2cccc(C(=O)N(C)C)c2)cc(C(=O)NNS(=O)(=O)CC2CCCCC2)c1F` [Compound I-374], the IC50 against KAT6A and against KAT5 was 10 to 50 µM in each case.

In the case of `O=C(NNS(=O)(=O)C1CCCCC1)c1nc(-c2ccccc2)ccc1F` [Compound I-332], the IC50 at KAT6A and against KAT5 was more than 100 µM each time.

As to `O=C(NNS(=O)(=O)C1CCCCC1)c1c(Cl)ccc(Cl)c1F` [Compound I-461], the IC50 against KAT6A and against KAT5 was more than 100 µM throughout.

Take `COc1ccccc1S(=O)(=O)NNC(=O)c1cc(-c2ccccc2)cc(C)c1F` [Compound I-176]: the IC50 on KAT6A and at KAT5 was not above 10 µM each time.

Regarding `Cc1cc(-c2cccc(F)c2)cc(C(=O)NNS(=O)(=O)CC2CCCN(C(=O)C3CCC3)C2)c1F` (stereo not drawn) [Compound I-274], the IC50 against KAT6A and at KAT5 was not above 10 µM each time.

In the case of `Cc1cc(-c2ccccc2)cc(C(=O)NNS(=O)(=O)C2CN(Cc3ccccc3)C2)c1F` [Compound I-61], the values for the IC50 on KAT6A and at KAT5 were 10 to 50 µM and more than 100 µM, respectively.

Consider `Cc1cc(-c2ccccc2)cc(C(=O)Nc2n[nH]c3ncccc23)c1F` [Compound I-282], for which the values for the IC50 on KAT6A and against KAT5 were 10 to 50 µM and 50 to 100 µM, respectively.

In the case of `Cc1cc(-c2cccc(C(=O)O)c2)cc(C(=O)NNS(=O)(=O)C2CCCCC2)c1F` [Compound I-444], the IC50 against KAT6A and against KAT5 was not above 10 µM throughout.

With `Cc1cc(-c2ccccc2)cc(C(=O)NNS(=O)(=O)c2ccc(O)cc2)c1F` [Compound I-211], the half-inhibitory concentration (IC50) at KAT6A and against KAT5 was not above 10 µM each time.

Take `O=C(NNS(=O)(=O)c1ccccc1)c1c(F)ccc(-c2cn[nH]c2)c1F` [Compound I-167]: the IC50 against KAT6A lay within 10 to 50 µM; against KAT5, 50 to 100 µM.

On to `CCNC(=O)c1cc(Cl)c(F)c(C(=O)NNS(=O)(=O)C2CCCCC2)c1` [Compound I-472], for which the IC50 against KAT6A and at KAT5 was more than 100 µM throughout.

As to `Cn1ccc2c(C(=O)NNS(=O)(=O)c3ccccc3)cc(-c3ccccc3)cc21` [Compound I-17], the half-maximal inhibitory concentration (IC50) at KAT6A was more than 100 µM; on KAT5, 50 to 100 µM.

Take `Cc1cc(-c2ccccc2)cc(C(=O)NNS(=O)(=O)C2CCCC2)c1F` [Compound I-19]: the IC50 against KAT6A is 10 to 50 µM; on KAT5, not above 10 µM.

As to `CNCCC(=O)N1CCC(CS(=O)(=O)NNC(=O)c2cc(-c3cccc(F)c3)cc(C)c2F)CC1` [Compound I-389], the IC50 against KAT6A and on KAT5 was 10 to 50 µM each time.

Turning to `Cc1c(-c2ccccc2)ccc(F)c1C(=O)NNS(=O)(=O)c1ccccc1Cl` [Compound I-225], the IC50 is 10 to 50 µM against KAT6A and 50 to 100 µM against KAT5.

Turning to `COCCC(=O)N1CCC(S(=O)(=O)NNC(=O)c2cc(-c3ccccc3)cc(C)c2F)CC1` [Compound I-109], the IC50 on KAT6A and against KAT5 was 10 to 50 µM in each case.
